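Cells were grown in 96-well plates and exposed to each compound for 48 hours at five concentrations; endpoints were interpolated linearly between bracketing concentrations, or set to the highest concentration if not reached. The concentration for full growth arrest is given as TGI.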
How the values were obtained:
Assay in all cases: NCI tumour cell line growth inhibition, 48 h
[1] = tested on: OVCAR-3 ovarian
[2] = tested on: HCT-116 colon
[3] = tested on: MCF7 breast
[4] = tested on: MALME-3M melanoma
[5] = tested on: COLO 205 colon
[6] = tested on: SF-295 CNS
[7] = tested on: OVCAR-4 ovarian
[8] = tested on: EKVX NSCLC
[9] = tested on: ACHN renal
[10] = tested on: UACC-62 melanoma
[11] = tested on: MDA-MB-231 breast
[12] = tested on: SNB-19 CNS
[13] = tested on: HOP-92 NSCLC
[14] = tested on: SN12C renal
[15] = tested on: UACC-257 melanoma
[16] = tested on: SNB-75 CNS
[17] = tested on: DU-145 prostate
[18] = tested on: NCI-H226 lung
[19] = tested on: KM12 colon
[20] = tested on: NCI-H522 lung
[21] = tested on: NCI-H23 lung
[22] = tested on: SW-620 colon
[23] = tested on: RPMI-8226 leukemia
[24] = tested on: NCI/ADR-RES ovarian
[25] = tested on: A549 NSCLC
[26] = tested on: HS 578T breast
[27] = tested on: U251 CNS
[28] = tested on: CCRF-CEM leukemia
[29] = tested on: 786-0 renal
[30] = tested on: LOX IMVI melanoma
[31] = tested on: SF-268 CNS
[32] = tested on: MDA-MB-435
[33] = tested on: BT-549 breast
[34] = tested on: HT29 colon
[35] = tested on: PC-3 prostate
[36] = tested on: K-562 leukemia
[37] = tested on: SK-OV-3 ovarian
[38] = tested on: MOLT-4 leukemia
[39] = tested on: SF-539 CNS
[40] = tested on: SK-MEL-2 melanoma
[41] = tested on: HOP-62 NSCLC
[42] = tested on: IGROV1 ovarian
[43] = tested on: CAKI-1 renal
[44] = tested on: MDA-N
[45] = tested on: M14 melanoma
[46] = tested on: SK-MEL-28 melanoma
[47] = tested on: OVCAR-8 ovarian
[48] = tested on: RXF 393 renal
[49] = tested on: OVCAR-5 ovarian
[50] = tested on: HCC-2998 colon
[51] = tested on: UO-31 renal
[52] = tested on: TK-10 renal
[53] = tested on: HCT-15 colon
[54] = tested on: T-47D breast
[55] = tested on: SR leukemia
[56] = tested on: HL-60(TB) leukemia
[57] = tested on: SK-MEL-5 melanoma
[58] = tested on: A498 renal
[59] = tested on: NCI-H460 lung

For `N#Cc1nc(COCc2ccccc2)oc1N`, the TGI [1] was > 100 µM, the TGI [2] was > 100 µM and the TGI [3] was > 100 µM. The TGI [4] was > 100 µM, the TGI [5] was > 100 µM and the TGI [6] was > 100 µM. The TGI [7] was > 100 µM, the TGI [8] was > 100 µM and the TGI [9] was > 100 µM. The TGI [10] was > 100 µM, the TGI [11] was > 100 µM and the TGI [12] was > 100 µM. The TGI [13] was > 100 µM, the TGI [14] was > 100 µM and the TGI [15] was > 100 µM. The TGI [16] was > 100 µM, the TGI [17] was > 100 µM and the TGI [18] was > 100 µM. For the same molecule, the TGI [19] was > 100 µM, the TGI [20] was > 100 µM and the TGI [21] was > 100 µM. The TGI [22] was > 100 µM, the TGI [23] was > 100 µM and the TGI [24] was > 100 µM. The TGI [25] was > 100 µM, the TGI [26] was > 100 µM and the TGI [27] was > 100 µM. The TGI [28] was > 100 µM, the TGI [29] was > 100 µM and the TGI [30] was > 100 µM. For the same molecule, the TGI [31] was > 100 µM, the TGI [32] was > 100 µM and the TGI [33] was > 100 µM. The TGI [34] was > 100 µM, the TGI [35] was > 100 µM and the TGI [36] was > 100 µM. For the same molecule, the TGI [37] was > 100 µM, the TGI [38] was > 100 µM and the TGI [39] was > 100 µM. The TGI [40] was > 100 µM, the TGI [41] was > 100 µM and the TGI [42] was > 100 µM. The TGI [43] was > 100 µM, the TGI [44] was > 100 µM and the TGI [45] was > 100 µM. For the same molecule, the TGI [46] was > 100 µM, the TGI [47] was > 100 µM and the TGI [48] was > 100 µM. For the same molecule, the TGI [49] was > 100 µM, the TGI [50] was > 100 µM and the TGI [51] was > 100 µM. The TGI [52] was > 100 µM, the TGI [53] was > 100 µM and the TGI [54] was > 100 µM. For the same molecule, the TGI [55] was > 100 µM.
With `C=C(C)C1CC2(C)C(C)CC(OC(=O)/C(C)=C\C)CC2C(OC(=O)/C(C)=C\C)C1O` (stereo not drawn) the TGI [2] was > 100 µM, the TGI [3] was > 100 µM and the TGI [4] was > 100 µM. The TGI [5] was 48.4 µM, the TGI [7] was > 100 µM and the TGI [8] was > 100 µM. The TGI [56] was 43.6 µM, the TGI [9] was > 100 µM and the TGI [10] was > 100 µM. For the same molecule, the TGI [11] was > 100 µM, the TGI [12] was > 100 µM and the TGI [13] was > 100 µM. The TGI [14] was > 100 µM, the TGI [15] was > 100 µM and the TGI [16] was > 100 µM. The TGI [17] was > 100 µM, the TGI [18] was > 100 µM and the TGI [19] was > 100 µM. The TGI [20] was > 100 µM, the TGI [21] was > 100 µM and the TGI [22] was > 100 µM. The TGI [24] was > 100 µM, the TGI [25] was > 100 µM and the TGI [26] was > 100 µM. For the same molecule, the TGI [27] was > 100 µM, the TGI [28] was 45.8 µM and the TGI [29] was > 100 µM. For the same molecule, the TGI [30] was > 100 µM, the TGI [31] was > 100 µM and the TGI [32] was > 100 µM. The TGI [57] was 43.7 µM, the TGI [33] was > 100 µM and the TGI [34] was > 100 µM. The TGI [35] was > 100 µM, the TGI [37] was > 100 µM and the TGI [38] was 60.3 µM. For the same molecule, the TGI [39] was > 100 µM, the TGI [40] was > 100 µM and the TGI [58] was > 100 µM. For the same molecule, the TGI [42] was > 100 µM, the TGI [43] was > 100 µM and the TGI [44] was > 100 µM. For the same molecule, the TGI [45] was > 100 µM, the TGI [46] was > 100 µM and the TGI [47] was > 100 µM. The TGI [49] was > 100 µM, the TGI [50] was > 100 µM and the TGI [59] was > 100 µM. The TGI [51] was > 100 µM, the TGI [52] was > 100 µM and the TGI [53] was > 100 µM. The TGI [54] was > 100 µM and the TGI [55] was 45.1 µM.

Source: PubChem BioAssay (NCI)
